Consider two molecules from PMC11204507, “Mechanistic Insights into the Neurotoxicity of 2,5-Dimethoxyphenethylamines (2C) and Corresponding N-(2-methoxybenzyl)phenethylamine (NBOMe) Drugs” (Journal of Xenobiotics, 2024).

“And” between values parts separate entries of the source, which are not always exact repeats. Identical values can stand only once.

In the test the test system is differentiated SH-SY5Y cells. Put plainly: Intracellular calcium levels, Fluo-4 AM probe. The test is classed as cell-based, human. Particulars: control 100.0%. The protocol:
Calcium is a vital second messenger for almost every cellular process, including cellular signaling, muscle function, neurotransmitter release, membrane function, and apoptosis. Therefore, its levels inside cells are strictly controlled to maintain cellular homeostasis. The intracellular calcium levels were measured using the cell-permeable Fluo-4 AM probe. Inside the cells, Fluo-4 AM is cleaved to its active and fluorescent form—Fluo-4—which has a high affinity for calcium ions (Ca^2⁺). Thus, its fluorescence emission is directly proportional to the concentration of calcium ions in the intracellular environment.
Therefore, the SH-SY5Y cells were seeded onto 96-well plates (25,000 cells/cm^2) following the previously described seeding and differentiation protocol. […] The average value for negative control (EGTA-treated cells) was subtracted from every other condition and then the minimum average value was subtracted from the maximum average value for every other condition. The results are presented as a percentage relative to the control cells (0 µM). A minimum of 5 independent experiments were conducted in triplicate.
On the technique in general: Calcium flux is commonly read through the fluorescence of an indicator in the cells.

Where [1] appears, read: drug at its EC50, immediately after exposure.

As for `CCCSc1cc(OC)c(CCN)cc1OC.Cl` [2C-T-7, 2-(2,5-dimethoxy-4-(propylthio)phenyl)ethan-1-aminium chloride], the “Ca2+ intracellular levels, % of control cells” value by setting is: (drug at its EC20, immediately after exposure) 129.9%; under setting [1], 146.5%. Take `CCCSc1cc(OC)c(CCNCc2ccccc2OC)cc1OC.Cl` [25T7-NBOMe, 2-(2,5-dimethoxy-4-(propylthio)phenyl)-N-(2-methoxybenzyl)ethan-1-aminium chloride]: the “Ca2+ intracellular levels, % of control cells” value under setting [1] was > 300% and 320.9%.
